Assays:
[1] = system: NADPH oxidase; test: NADPH oxidase activity (lucigenin-ECL) in BMDMs; type: cell-based, mouse; conditions: LPS or LPS/ATP stimulated (Fig. 3c, Supplemental Fig. 5b, 5e)
Method: Intracellular superoxide production was measured by the lucigenin (bis-N-methylacridinium nitrate)-ECL method[18],[19]. Briefly, cells lysates were allowed to equilibrate for 30 min at 37 °C in a reaction containing 50 mM phosphate buffer (pH 7.0), 1 mM EGTA, 150 mM sucrose, and a protease inhibitor mixture prior to the addition of Krebs-HEPES buffer containing lucigenin (5 μM) as the electron acceptor and NADPH (100 μM) as the electron donor. The values are expressed as relative light units per 1 × 10^5 cells.
(§1) Figure 3 TIPTP robustly suppresses LPS/ATP-mediated Rubicon-p22phox interaction and ROS-mediated inflammation. (a) Structure of the TIPTP. (b) MTT assay for cell viability. BMDMs were incubated with TIPTP for the indicated times at the indicated TIPTP concentrations (upper). WCLs were used for IB with α22phox, αRubicon, or αActin (lower). (c–f) LPS (100 ng/ml)-primed BMDMs were treated with compounds for 1 h, and then activated with ATP (1 mM) for 30 min. (c) NADPH oxidase activity. (d) FACS analysis for superoxide and hydrogen peroxide (upper). Quantitative analysis of mean fluorescence intensities of ROS (lower). (e) BMDMs were incubated with increasing concentrations of compound 1 and TIPTP (com 2) (***). IP with αRubicon, followed by IB with αp22phox, αBeclin-1, αUVRAG, αRubicon. […] (f) Culture supernatants were harvested and analyzed for cytokines by ELISA. […]

[2] = system: ROS (O2− and H2O2); test: Flow cytometric measurement of ROS production in BMDMs; type: cell-based, mouse; conditions: LPS-primed BMDMs, compound 1 h, ATP 30 min (Fig. 3d)
Method: Intracellular ROS levels were measured by flow cytometry from cells cultured in serum-free medium and loaded with the redox-sensitive dye 2 µM dihydroethidium (DHE for O2^−; Calbiochem) or 10 µM 2′,7′-Dichlorofluorescin diacetate (DCFH-DA for H2O2; Calbiochem)[18],[19]. The cells were thoroughly and quickly washed with pulse spin and immediately acquired for analyses in FACSCalibur (BD Biosciences, San Jose, CA). The data were plotted using CellQuest software (BD Biosciences).
as §1

[3] = system: NLRP3 inflammasome; test: NLRP3 inflammasome activation in LPS/ATP-treated BMDMs (immunoblot, ELISA); type: cell-based, mouse; conditions: NLRP3 inflammasome-activating stimuli (Fig. 3e, 3f)
Method: For immunoblotting, polypeptides were resolved by SDS-polyacrylamide gel electrophoresis and transferred to a PVDF membrane (Bio-Rad). […] Antibody binding was visualized by chemiluminescence (ECL; Millipore) and detected by a Vilber chemiluminescence analyzer (Fusion SL 3; Vilber Lourmat).
Cell culture supernatants, mice sera and synovial fluid were analyzed for cytokine content using the BD OptEIA ELISA set (BD Pharmingen) for the detection of TNF-α, IL-6, IL-1β, and IL-18. All assays were performed as recommended by the manufacturer.
as §1

[4] = Plasma stability assay; type: in vitro ADME; conditions: 37 °C
Method: Human plasma in each culture tube, treated with test compound (10 μM), was incubated at 37 °C for 0, 30 and 120 min. At the determined period of time, internal standard solution of chlopropamide in acetonitrile was added into each culture tube and then tubes were vortexed for 5 min, and then centrifuged for 5 min (14,000 rpm, 4 °C). The supernatant was then injected into LC-MS/MS system to analyze the plasma stability of the tested compound.

Structure (SMILES): C[C@@H](Oc1cccc(-n2cc3c(n2)CCCC3)c1)C(=O)Nc1nnc(C(F)(F)F)s1 [TIPTP, (R)-2-(3-(4,5,6,7-tetrahydro-2H-indazol-2-yl)phenoxy)-N-(5-(trifluoromethyl)-1,3,4-thiadiazol-2-yl)propanamide]
- NOX activity [1]: inhibited in a dose-dependent manner
- ROS (O2− and H2O2) generation [2]: inhibited in a dose-dependent manner
- caspase-1 activation, and IL-1β and IL-18 maturation [3]: significantly decreased
- Human plasma stability (% remaining after 30 min) ([4]; 10 μM, 30 min, listed as TIPTP (2)): 97.4%
- Human plasma stability (% remaining after 2 h) ([4]; 10 μM, 2 h, listed as TIPTP (2)): 93.8%
- remaining at 0.5 h, 10 μM ([4]; human, plasma, 30 min, read-out: Human plasma stability (% remaining after 30 min)): 97%
- remaining at 2 h, 10 μM ([4]; human, plasma, 2 h, read-out: Human plasma stability (% remaining after 2 h)): 94%
